Where a name gives a salt, the structure may show the parent alone. Active and inactive are the calls of the source.
How the values were obtained:
[1] = molecular target: T1, Ras-related protein Rab-10 (Homo sapiens, UniProt P61026)
T1 sequence (P61026 whole entry): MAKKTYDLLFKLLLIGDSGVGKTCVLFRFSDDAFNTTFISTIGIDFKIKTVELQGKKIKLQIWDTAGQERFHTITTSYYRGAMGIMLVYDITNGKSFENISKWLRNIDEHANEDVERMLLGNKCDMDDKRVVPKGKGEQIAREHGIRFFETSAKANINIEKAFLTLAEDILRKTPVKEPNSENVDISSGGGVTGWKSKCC

[2] = molecular target: T2, Rab-like protein 3 (Homo sapiens, UniProt Q5HYI8)
T2 sequence (Q5HYI8 whole entry): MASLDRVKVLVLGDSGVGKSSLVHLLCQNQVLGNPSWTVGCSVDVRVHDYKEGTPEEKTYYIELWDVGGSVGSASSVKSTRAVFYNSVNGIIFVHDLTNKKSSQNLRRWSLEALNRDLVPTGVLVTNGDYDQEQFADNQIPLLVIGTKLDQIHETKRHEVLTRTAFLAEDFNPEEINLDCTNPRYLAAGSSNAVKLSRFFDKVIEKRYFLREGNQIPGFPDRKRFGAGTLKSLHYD

[3] = molecular target: T3, STE20-related kinase adapter protein alpha (Homo sapiens, UniProt Q7RTN6)
T3 sequence (Q7RTN6 whole entry): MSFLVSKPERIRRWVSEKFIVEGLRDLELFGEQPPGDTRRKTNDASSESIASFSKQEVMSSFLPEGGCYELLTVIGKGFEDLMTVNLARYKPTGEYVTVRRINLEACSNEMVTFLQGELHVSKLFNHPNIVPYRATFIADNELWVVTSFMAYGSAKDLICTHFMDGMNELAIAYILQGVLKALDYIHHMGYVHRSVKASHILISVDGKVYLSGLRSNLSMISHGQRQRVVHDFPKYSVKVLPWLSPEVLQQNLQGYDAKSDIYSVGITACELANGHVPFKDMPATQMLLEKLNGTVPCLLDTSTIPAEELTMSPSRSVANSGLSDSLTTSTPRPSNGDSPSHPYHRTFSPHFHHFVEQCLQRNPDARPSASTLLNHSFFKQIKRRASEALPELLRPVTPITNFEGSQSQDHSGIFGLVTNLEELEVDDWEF

[4] = molecular target: RAC-alpha serine/threonine-protein kinase (Homo sapiens, UniProt P31749)
Chain of RAC-alpha serine/threonine-protein kinase (P31749 whole entry): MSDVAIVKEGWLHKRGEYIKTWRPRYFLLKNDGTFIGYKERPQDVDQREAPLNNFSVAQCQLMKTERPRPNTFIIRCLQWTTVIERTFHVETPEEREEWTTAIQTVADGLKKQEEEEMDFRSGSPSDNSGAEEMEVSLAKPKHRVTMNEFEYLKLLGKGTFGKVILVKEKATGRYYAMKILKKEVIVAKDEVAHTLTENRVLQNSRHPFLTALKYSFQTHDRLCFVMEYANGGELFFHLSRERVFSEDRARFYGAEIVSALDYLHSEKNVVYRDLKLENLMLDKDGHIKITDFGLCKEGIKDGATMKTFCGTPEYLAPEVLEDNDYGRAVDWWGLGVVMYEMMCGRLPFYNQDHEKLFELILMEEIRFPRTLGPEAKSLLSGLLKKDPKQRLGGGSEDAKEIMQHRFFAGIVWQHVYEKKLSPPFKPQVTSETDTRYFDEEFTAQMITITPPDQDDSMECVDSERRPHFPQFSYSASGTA

[5] = molecular target: T4, Mitogen-activated protein kinase kinase kinase kinase 2 (Homo sapiens, UniProt Q12851)
T4 sequence (Q12851 whole entry): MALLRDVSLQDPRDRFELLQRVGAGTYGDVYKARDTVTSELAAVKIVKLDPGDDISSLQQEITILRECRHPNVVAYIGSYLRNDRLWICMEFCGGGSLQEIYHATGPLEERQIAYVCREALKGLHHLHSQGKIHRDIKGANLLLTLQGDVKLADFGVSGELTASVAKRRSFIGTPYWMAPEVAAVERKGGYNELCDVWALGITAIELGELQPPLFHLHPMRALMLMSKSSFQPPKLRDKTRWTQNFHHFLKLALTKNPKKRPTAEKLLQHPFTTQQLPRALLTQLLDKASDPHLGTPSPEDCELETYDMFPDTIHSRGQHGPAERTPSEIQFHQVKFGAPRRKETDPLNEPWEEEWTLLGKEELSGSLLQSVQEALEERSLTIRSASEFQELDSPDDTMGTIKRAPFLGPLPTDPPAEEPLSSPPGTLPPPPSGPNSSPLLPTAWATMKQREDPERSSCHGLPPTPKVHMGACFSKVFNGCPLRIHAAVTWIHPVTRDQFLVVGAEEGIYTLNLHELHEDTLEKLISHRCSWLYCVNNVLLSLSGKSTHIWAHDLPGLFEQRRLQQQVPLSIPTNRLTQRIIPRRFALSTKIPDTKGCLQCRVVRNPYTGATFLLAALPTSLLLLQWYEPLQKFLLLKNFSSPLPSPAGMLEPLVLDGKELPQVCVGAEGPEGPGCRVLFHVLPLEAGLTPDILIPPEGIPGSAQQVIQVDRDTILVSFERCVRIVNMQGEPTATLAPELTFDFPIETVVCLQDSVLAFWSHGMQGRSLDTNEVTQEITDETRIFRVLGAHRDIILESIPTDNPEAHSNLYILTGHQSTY

[6] = molecular target: MAP/microtubule affinity-regulating kinase 3 (Homo sapiens, UniProt P27448)
Chain of MAP/microtubule affinity-regulating kinase 3 (P27448 whole entry): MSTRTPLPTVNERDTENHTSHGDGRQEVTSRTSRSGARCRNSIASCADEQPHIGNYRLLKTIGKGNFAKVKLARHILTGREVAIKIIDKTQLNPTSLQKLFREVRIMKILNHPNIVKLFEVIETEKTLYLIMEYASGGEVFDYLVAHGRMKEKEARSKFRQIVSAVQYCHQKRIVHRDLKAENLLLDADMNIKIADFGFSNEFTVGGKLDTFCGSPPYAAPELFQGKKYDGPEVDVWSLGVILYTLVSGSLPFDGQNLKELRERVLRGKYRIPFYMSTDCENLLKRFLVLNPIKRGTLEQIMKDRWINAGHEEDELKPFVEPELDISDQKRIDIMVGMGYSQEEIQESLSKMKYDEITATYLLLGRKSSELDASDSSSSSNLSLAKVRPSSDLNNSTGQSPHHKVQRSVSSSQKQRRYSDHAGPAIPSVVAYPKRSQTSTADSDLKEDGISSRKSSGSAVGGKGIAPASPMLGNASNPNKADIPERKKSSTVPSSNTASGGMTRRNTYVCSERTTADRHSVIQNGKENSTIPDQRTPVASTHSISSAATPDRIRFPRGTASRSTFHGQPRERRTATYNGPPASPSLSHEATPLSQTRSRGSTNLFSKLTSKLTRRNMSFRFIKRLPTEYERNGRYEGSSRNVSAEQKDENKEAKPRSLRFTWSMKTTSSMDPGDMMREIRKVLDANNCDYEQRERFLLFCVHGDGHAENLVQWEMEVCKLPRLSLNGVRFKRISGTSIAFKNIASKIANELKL

[7] = molecular target: Ribosomal protein S6 kinase alpha-1 (Homo sapiens, UniProt Q15418)
Chain of Ribosomal protein S6 kinase alpha-1 (Q15418 whole entry): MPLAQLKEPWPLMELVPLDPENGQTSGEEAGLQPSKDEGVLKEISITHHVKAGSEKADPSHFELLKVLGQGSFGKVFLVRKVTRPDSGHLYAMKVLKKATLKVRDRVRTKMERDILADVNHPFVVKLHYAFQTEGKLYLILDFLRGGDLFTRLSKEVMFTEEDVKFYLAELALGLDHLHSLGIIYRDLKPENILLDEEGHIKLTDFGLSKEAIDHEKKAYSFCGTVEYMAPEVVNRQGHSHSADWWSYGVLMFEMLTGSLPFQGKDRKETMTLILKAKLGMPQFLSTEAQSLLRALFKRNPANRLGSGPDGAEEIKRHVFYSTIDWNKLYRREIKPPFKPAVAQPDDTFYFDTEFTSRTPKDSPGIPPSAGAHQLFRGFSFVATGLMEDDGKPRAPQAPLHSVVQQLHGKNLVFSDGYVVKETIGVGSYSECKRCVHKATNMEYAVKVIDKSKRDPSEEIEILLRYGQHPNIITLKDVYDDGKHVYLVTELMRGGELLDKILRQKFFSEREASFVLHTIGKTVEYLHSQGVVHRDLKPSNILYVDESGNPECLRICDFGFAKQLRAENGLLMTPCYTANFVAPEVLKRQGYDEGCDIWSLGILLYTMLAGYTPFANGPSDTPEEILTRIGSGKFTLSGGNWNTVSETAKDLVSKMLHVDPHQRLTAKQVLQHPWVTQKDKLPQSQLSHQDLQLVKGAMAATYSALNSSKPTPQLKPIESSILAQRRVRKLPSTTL

[8] = molecular target: T5, Serine/threonine-protein kinase ULK1 (Homo sapiens, UniProt O75385)
T5 sequence (O75385 whole entry): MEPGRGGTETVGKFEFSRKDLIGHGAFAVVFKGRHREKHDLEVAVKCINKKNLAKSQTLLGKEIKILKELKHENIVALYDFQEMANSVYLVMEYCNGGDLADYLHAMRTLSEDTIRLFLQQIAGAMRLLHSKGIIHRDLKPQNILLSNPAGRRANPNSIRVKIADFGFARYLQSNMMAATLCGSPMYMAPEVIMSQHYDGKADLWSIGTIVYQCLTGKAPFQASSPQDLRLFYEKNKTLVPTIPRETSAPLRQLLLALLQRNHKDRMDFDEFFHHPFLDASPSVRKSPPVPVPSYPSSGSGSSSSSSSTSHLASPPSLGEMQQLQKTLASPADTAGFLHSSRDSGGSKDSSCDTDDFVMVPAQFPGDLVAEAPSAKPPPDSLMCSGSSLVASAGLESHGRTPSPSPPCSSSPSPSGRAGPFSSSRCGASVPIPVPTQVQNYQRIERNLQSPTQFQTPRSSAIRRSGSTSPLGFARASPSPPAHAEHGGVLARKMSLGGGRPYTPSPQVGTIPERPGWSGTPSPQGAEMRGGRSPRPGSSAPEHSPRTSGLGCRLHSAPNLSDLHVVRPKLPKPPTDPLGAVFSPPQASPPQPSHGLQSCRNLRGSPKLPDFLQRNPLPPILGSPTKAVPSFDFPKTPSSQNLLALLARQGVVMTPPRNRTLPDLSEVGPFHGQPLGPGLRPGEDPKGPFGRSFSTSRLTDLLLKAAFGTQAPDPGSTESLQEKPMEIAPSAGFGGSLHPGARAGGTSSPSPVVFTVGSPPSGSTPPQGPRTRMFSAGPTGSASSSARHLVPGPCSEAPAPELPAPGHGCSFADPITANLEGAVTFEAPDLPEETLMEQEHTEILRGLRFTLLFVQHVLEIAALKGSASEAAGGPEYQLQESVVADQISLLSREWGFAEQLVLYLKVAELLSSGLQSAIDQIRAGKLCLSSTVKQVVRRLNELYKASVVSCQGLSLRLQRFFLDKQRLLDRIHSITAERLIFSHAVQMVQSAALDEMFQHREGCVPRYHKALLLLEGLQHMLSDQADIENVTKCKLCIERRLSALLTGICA
Also: in the data inactive means no Kd found up to 30 µM.

SMILES	Kd [1]	Kd [2]	Kd [3]	Kd [4]	Kd [5]	Kd [6]	Kd [7]	Kd [8]
Cn1cc(C2=C(c3cn(C4CCN(Cc5ccccn5)CC4)c4ccccc34)C(=O)NC2=O)c2ccccc21 [ENZASTAURIN]	> 30 µM (inactive)	> 30 µM (inactive)	> 30 µM (inactive)					
CN(C[C@@H]1COCCO1)S(=O)(=O)Nc1ccc2ccc3ncc(-c4cnn(C)c4)cc3c(=O)c2c1 [MK-2461]	> 30 µM (inactive)	> 30 µM (inactive)	> 30 µM (inactive)	> 30 µM (inactive)	> 30 µM (inactive)	> 30 µM (inactive)	> 30 µM (inactive)	> 30 µM (inactive)
CC(=O)c1cnc2ccc(-c3cc(Cl)c(O)c(Cl)c3)nc2c1N[C@H]1CC[C@H](CN(C)C)CC1	> 30 µM (inactive)		> 30 µM (inactive)	> 30 µM (inactive)		> 30 µM (inactive)	0.251 µM (active)	> 30 µM (inactive)
CC(C)(C)c1nc(-c2cccc(NS(=O)(=O)c3c(F)cccc3F)c2F)c(-c2ccnc(N)n2)s1 [DABRAFENIB]	> 30 µM (inactive)	> 30 µM (inactive)	> 30 µM (inactive)		> 30 µM (inactive)	> 30 µM (inactive)		0.188 µM (active)
Cc1nc2cc(-n3ncc(C(=O)c4cc5ccccc5[nH]4)c3N)ccc2[nH]1 [FGFR INHIBITOR DEBIO 1347]	> 30 µM (inactive)	> 30 µM (inactive)		> 30 µM (inactive)	> 30 µM (inactive)	> 30 µM (inactive)	> 30 µM (inactive)	> 30 µM (inactive)
N#CC[C@H](C1CCCC1)n1cc(-c2ncnc3[nH]ccc23)cn1 [RUXOLITINIB]	> 30 µM (inactive)		3.67 µM					
CCS(=O)(=O)N1CCN(c2ccc(Nc3ncc(C(N)=O)c(NC4CC4)n3)cc2)CC1 [Cerdulatinib Hydrochloride]	> 30 µM (inactive)	> 30 µM (inactive)	> 30 µM (inactive)	> 30 µM (inactive)	> 30 µM (inactive)		> 30 µM (inactive)	2.82 µM
Cc1nc(NC(=O)N2CCC[C@H]2C(N)=O)sc1-c1ccnc(C(C)(C)C(F)(F)F)c1 [ALPELISIB]	> 30 µM (inactive)		> 30 µM (inactive)	> 30 µM (inactive)	> 30 µM (inactive)	> 30 µM (inactive)	> 30 µM (inactive)	> 30 µM (inactive)
Cn1ncc(Cl)c1-c1cc(C(=O)N[C@H](CN)Cc2ccc(F)c(F)c2)oc1Cl [UPROSERTIB]	> 30 µM (inactive)	> 30 µM (inactive)	> 30 µM (inactive)		> 30 µM (inactive)		> 30 µM (inactive)	> 30 µM (inactive)
CCCCCCCCCCCCCCCCCCOP(=O)([O-])OC1CC[N+](C)(C)CC1 [PERIFOSINE]	> 30 µM (inactive)	> 30 µM (inactive)	> 30 µM (inactive)	> 30 µM (inactive)	> 30 µM (inactive)	> 30 µM (inactive)	> 30 µM (inactive)	> 30 µM (inactive)
C[C@H]1CNCCCN1S(=O)(=O)c1cccc2cncc(F)c12	> 30 µM (inactive)	> 30 µM (inactive)		> 30 µM (inactive)	> 30 µM (inactive)	58.2 µM (active)	> 30 µM (inactive)	> 30 µM (inactive)
O=C(Nc1nc2cccc(-c3ccc(CN4CCS(=O)(=O)CC4)cc3)n2n1)C1CC1 [FILGOTINIB]	> 30 µM (inactive)	> 30 µM (inactive)	> 30 µM (inactive)	> 30 µM (inactive)	> 30 µM (inactive)	> 30 µM (inactive)	> 30 µM (inactive)	> 30 µM (inactive)
Cc1nc(Nc2n[nH]c3c2CN(C(=O)N[C@H](CN(C)C)c2ccccc2)C3(C)C)c2sccc2n1 [PF-03758309]	> 30 µM (inactive)	> 30 µM (inactive)	> 30 µM (inactive)	> 30 µM (inactive)	> 30 µM (inactive)	0.105 µM (active)	0.82 µM (active)	> 30 µM (inactive)
COc1cc([C@@H]2c3cc4c(cc3[C@H](O)[C@H]3COC(=O)[C@@H]23)OCO4)cc(OC)c1OC [AXL-1717]	> 30 µM (inactive)	> 30 µM (inactive)	> 30 µM (inactive)	> 30 µM (inactive)	> 30 µM (inactive)	> 30 µM (inactive)	> 30 µM (inactive)	
Cc1[nH]c(/C=C2\C(=O)Nc3ccccc32)c(C)c1CCC(=O)O [ORANTINIB]	> 30 µM (inactive)	> 30 µM (inactive)	> 30 µM (inactive)					> 30 µM (inactive)
Cc1csc(-c2nnc(Nc3ccc(Oc4ncccc4-c4ccnc(N)n4)cc3)c3ccccc23)c1 [AMG-900]	> 30 µM (inactive)	> 30 µM (inactive)	> 30 µM (inactive)	> 30 µM (inactive)	0.186 µM (active)	> 30 µM (inactive)	> 30 µM (inactive)	0.19 µM (active)
C=CC(=O)N1CCC[C@H](n2c(=O)n(-c3ccc(Oc4ccccc4)cc3)c3c(N)ncnc32)C1	> 30 µM (inactive)	> 30 µM (inactive)	> 30 µM (inactive)	> 30 µM (inactive)	> 30 µM (inactive)	> 30 µM (inactive)	> 30 µM (inactive)	> 30 µM (inactive)
NC(=O)Nc1cc(-c2cccc(F)c2)sc1C(=O)N[C@H]1CCCNC1 [AZD-7762]	> 30 µM (inactive)	> 30 µM (inactive)	> 30 µM (inactive)	> 30 µM (inactive)	0.05 µM (active)		> 30 µM (inactive)	0.115 µM (active)
